In US20220193076A1, “METHODS OF TREATING BREAST CANCER WITH TUCATINIB” (Seagen Inc., priority 2019, published 2022):
Read-outs that look alike come from different tables or passages of the source.

Key:
[1] = biological target: T1, breast cancer resistance protein (BCRP) (Homo sapiens, UniProt Q9UNQ0); experiment: In vitro inhibition of BCRP activity; format: in vitro ADME
T1 sequence (Q9UNQ0 1-655): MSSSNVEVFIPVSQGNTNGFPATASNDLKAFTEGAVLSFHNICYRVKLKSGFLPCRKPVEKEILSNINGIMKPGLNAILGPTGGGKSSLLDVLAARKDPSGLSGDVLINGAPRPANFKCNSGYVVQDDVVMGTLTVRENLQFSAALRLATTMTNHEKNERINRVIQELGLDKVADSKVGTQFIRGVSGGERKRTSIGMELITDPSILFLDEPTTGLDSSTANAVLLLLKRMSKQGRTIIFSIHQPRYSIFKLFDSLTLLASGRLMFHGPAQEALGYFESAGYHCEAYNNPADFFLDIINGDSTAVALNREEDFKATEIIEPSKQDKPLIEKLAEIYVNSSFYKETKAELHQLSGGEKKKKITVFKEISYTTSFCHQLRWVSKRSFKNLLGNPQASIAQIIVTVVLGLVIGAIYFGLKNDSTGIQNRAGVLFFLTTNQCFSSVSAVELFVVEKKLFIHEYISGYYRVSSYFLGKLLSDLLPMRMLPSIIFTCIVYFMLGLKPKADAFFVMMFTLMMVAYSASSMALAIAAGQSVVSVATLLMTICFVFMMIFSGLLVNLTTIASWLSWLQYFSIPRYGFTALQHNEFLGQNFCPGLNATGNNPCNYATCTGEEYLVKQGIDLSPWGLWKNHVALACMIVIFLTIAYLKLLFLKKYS

[2] = biological target: P-glycoprotein (P-gp) (Homo sapiens, UniProt P08183); experiment: P-gp substrate assessment and inhibition of P-gp-mediated efflux of digoxin; format: in vitro ADME
Chain of P-glycoprotein (P-gp) (P08183 whole entry): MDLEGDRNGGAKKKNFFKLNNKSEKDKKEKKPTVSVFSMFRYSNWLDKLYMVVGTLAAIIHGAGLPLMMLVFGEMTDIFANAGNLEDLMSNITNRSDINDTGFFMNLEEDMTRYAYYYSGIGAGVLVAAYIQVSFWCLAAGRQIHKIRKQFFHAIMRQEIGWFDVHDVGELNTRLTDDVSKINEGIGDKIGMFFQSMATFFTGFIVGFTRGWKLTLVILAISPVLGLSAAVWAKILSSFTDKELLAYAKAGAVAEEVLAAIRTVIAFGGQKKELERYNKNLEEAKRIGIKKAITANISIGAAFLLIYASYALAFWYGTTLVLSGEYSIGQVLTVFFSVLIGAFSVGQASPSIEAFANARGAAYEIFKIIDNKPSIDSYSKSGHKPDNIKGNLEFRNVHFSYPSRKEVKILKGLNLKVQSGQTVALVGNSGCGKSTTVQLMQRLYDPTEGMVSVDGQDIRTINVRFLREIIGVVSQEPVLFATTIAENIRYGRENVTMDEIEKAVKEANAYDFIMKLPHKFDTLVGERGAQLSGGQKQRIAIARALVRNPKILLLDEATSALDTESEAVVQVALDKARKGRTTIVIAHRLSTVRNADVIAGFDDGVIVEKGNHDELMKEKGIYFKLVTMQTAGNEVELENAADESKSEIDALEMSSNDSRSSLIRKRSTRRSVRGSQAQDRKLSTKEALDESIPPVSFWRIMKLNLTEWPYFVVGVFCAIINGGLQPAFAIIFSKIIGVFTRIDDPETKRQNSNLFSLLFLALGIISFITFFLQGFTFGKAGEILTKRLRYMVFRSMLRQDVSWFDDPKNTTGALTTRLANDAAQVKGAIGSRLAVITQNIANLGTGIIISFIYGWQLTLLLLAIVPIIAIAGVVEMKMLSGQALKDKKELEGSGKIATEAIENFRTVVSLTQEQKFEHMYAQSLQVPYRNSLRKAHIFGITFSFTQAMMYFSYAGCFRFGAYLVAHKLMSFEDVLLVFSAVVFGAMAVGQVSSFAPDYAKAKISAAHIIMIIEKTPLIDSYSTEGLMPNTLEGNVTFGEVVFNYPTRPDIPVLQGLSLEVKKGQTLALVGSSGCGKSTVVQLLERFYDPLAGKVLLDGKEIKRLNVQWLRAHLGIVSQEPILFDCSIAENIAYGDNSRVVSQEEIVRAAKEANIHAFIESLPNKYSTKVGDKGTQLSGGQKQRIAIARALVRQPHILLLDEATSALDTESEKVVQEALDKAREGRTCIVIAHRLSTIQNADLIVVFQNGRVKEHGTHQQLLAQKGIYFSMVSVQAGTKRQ

[3] = Example 2 Part E: single- and multiple-dose PK of tucatinib and ONT-993; format: in vivo, human; settings: tucatinib 300 mg BID, Day 14 vs Day 8
[4] = tested on: CYP3A4 and CYP2C8; experiment: Example 2 Part B: effect of inducer rifampin on PK of tucatinib; format: in vivo, human; settings: tucatinib 300 mg single dose in combination with rifampin vs tucatinib alone
Method: They were discharged on Day 12 after completion of the in-patient assessments. […] On Day 3 through Day 11, each subject received single oral doses of 600 mg of rifampin once daily (QD). On Day 10, each subject received a single oral dose of 300 mg of tucatinib. […] Other noncompartmental PK parameters may be reported. Additionally, blood samples were collected for determination of trough levels of rifampin prior to morning dosing on the days indicated in FIG. 6.

[5] = tested on: CYP3A4/5; experiment: Cytochrome P450 3A4/5 inhibition in human liver microsomes (Example 4); format: in vitro ADME; settings: both sexes, pooled human liver microsomes
Method: This in vitro study was designed to evaluate the ability of tucatinib to inhibit the major CYP enzyme CYP3A4/5 in human liver microsomes (using two different substrates) with the aim of ascertaining the potential of tucatinib to inhibit the metabolism of concomitantly administered drugs. The inhibitory potency of tucatinib was determined in vitro by measuring the activity of CYP3A4/5 in human liver microsomes in the presence and absence of tucatinib. […] Metabolism-dependent inhibition was further evaluated to determine how quickly (kinact value) and to what extent (Ki value) tucatinib inactivates CYP3A4/5.
Human liver microsomes from non-transplantable, donated livers were prepared and characterized. A mixed-gender pool of 200 individual human liver microsomal samples was used for this study (Sekisui XenoTech catalog number: H2620, lot number: 1210347).
To measure CYP activity, incubations were conducted at approximately 37° C. in 200 μL incubation mixtures (pH 7.4) containing water, potassium phosphate buffer (50 mM), MgCl2 (3 mM), EDTA (1 mM), an NADPH-regenerating system (always the mixture of the following: NADP [1 mM], glucose 6 phosphate [5 mM], glucose 6 phosphate dehydrogenase [1 Unit/mL]), and marker substrate at the final concentrations indicated.
Aliquots of the stock and/or working solutions of tucatinib were manually added to buffer mixtures described above. Incubation mixtures were prepared in bulk to obviate the need for directly pipetting very small volumes (i.e., 1 μL or less). Incubations containing no tucatinib (0 μM; Solvent Control) contained the solvent used to dissolve tucatinib (i.e., DMSO).
The Tecan liquid handling system conducted all remaining steps for the IC50 and Kl/kinact determinations, with the exception of the centrifugation. For these assays, duplicate aliquots of the buffer mixtures were automatically added to 96-well plates at the appropriate locations. Aliquots of a substrate working solution were added to the 96-well plates prior to initiating reactions. Marker substrate reactions were initiated by the addition of an aliquot of an NADPH-regenerating system and were automatically terminated at approximately 5 min by the addition of the appropriate internal standard and stop reagent, acetonitrile. The samples were centrifuged at 920×g for 10 min at 10° C. The supernatant fractions were analyzed by LC-MS/MS. Standards were similarly prepared with the addition of authentic metabolite standards.
Due to the possibility that tucatinib may bind to microsomal protein or lipids, an attempt was made to design these experiments such that, in as many cases as possible, the microsomal protein, incubation time and buffer concentration were 0.1 mg/mL, 5 min and 50 mM, respectively.
To examine its ability to act as a direct inhibitor of enzymes, tucatinib (at concentrations ranging from 0.01 to 10 μM) was incubated with marker substrate and human liver microsomes. The concentrations of marker substrates were based on the Km or S50 data that were determined previously.
To examine its ability to act as a metabolism-dependent inhibitor of CYP3A4/5 enzymes, tucatinib (at the same concentrations used to evaluate direct inhibition) was preincubated at 37±2° C., in duplicate, with human liver microsomes and an NADPH-regenerating system for approximately 30 min. This preincubation allowed for the generation of intermediates that could inhibit human CYP3A4/5 activity. The preincubations were initiated by the addition of an aliquot of an NADPH-regenerating system. To examine its ability to act as a time-dependent inhibitor of CYP3A4/5 enzymes, additional duplicate samples at all tucatinib concentrations were preincubated for 30 min in the presence of pooled human liver microsomes, but in the absence of NADPH. This preincubation allowed assessment of whether any potential increase in inhibition was dependent upon NADPH (e.g., potentially CYP-mediated). […]

[6] = Example 2 Part D: single- and multiple-dose PK of tucatinib and ONT-993; format: in vivo, human; settings: tucatinib 300 mg BID, Day 10 vs Day 4
From the text: Other noncompartmental PK parameters may be reported.

## Cc1cc(Nc2ncnc3ccc(NC4=NC(C)(C)CO4)cc23)ccc1Oc1ccn2ncnc2c1 [tucatinib]
[1]
  IC50: 8.98 µM
[2]
  IC50: 10 to 30 µM
  P-gp substrate status: P-glycoprotein (P-gp) substrate
[3]
  Rac (accumulation ratio) after multiple dosing: 1.50
[4]
  Geometric LS mean ratio (90% CI), AUC0-∞: 0.520 (0.452, 0.597)
  Geometric LS mean ratio (90% CI), AUClast: 0.517 (0.449, 0.596)
  Geometric LS mean ratio (90% CI), Cmax: 0.632 (0.531, 0.753)
[5]; human, pH 7.4, probe midazolam (1′-hydroxylation), midazolam 1′-hydroxylation, read-out: Efficiency of inactivation (kinact/KI) (converted)
  kinact/KI: 350 M⁻¹ s⁻¹
[5]; human, pH 7.4, probe midazolam (1′-hydroxylation), read-out: IC50, direct inhibition of CYP3A4/5-mediated midazolam 1′-hydroxylation
  IC50 at 5 min: 3.3 µM
[5]; human, pH 7.4, probe midazolam (1′-hydroxylation), read-out: KI, inactivation of CYP3A4/5-mediated midazolam 1′-hydroxylation, mean±SE
  KI (inactivation): 0.54 ± 0.25 µM
[5]; human, pH 7.4, probe midazolam (1′-hydroxylation), read-out: kinact, inactivation of CYP3A4/5-mediated midazolam 1′-hydroxylation, mean±SE (converted)
  kinact: 0.000183 s⁻¹
[5]; human, pH 7.4, probe testosterone (6β-hydroxylation), read-out: IC50, direct inhibition of CYP3A4/5-mediated testosterone 6p-hydroxylation
  IC50 at 5 min: > 10 µM
[5]; pH 7.4, probe testosterone (6β-hydroxylation), human liver microsomes, up to 10 μM, read-out: Maximum direct inhibition of CYP3A4/5-mediated testosterone 6p-hydroxylation
  inhibition at 5 min: 44%
[6]
  Rac (accumulation ratio) after multiple dosing: 1.85
